The source of these data is patent US20140377278A1, “Compositions and Methods for Assessing and Treating Inflammatory Diseases and Disorders” (Yale University, priority 2012, published 2014).

The test concerns ASC^−/− mice. The test is described as follows: DSS colitis in ASC-deficient mice after oral antimicrobial pretreatment. The test is classed as in vivo. As to conditions: oral antiviral, antifungal or antiparasitic treatment before DSS; weight loss compared (FIGS. 13C-13E).

As to `C[C@@H]1[C@H](O)[C@@H](C)/C=C/C=C/C=C/C=C/C=C/C=C/C=C/[C@H](O[C@@H]2O[C@H](C)[C@@H](O)[C@H](N)[C@@H]2O)C[C@@H]2O[C@](O)(C[C@@H](O)C[C@@H](O)[C@H](O)CC[C@@H](O)C[C@@H](O)CC(=O)O[C@H]1C)C[C@H](O)[C@H]2C(=O)O` [amphotericin, amphotericin B], the “severity of colitis in ASC-deficient mice” value was “None of these treatments altered the severity of colitis”. For `Nc1nc(O)c2ncn(COC(CO)CO)c2n1` [gancyclovir] the value was “None of these treatments altered the severity of colitis”.
